Patent US20050014811A1, “Substituted benzimidazole compounds and their use for the treatment of cancer” (Aventis Pharma S.A., priority 2001, published 2005)

Tests used:
CDK4/CyclinD1 = CDK4/CyclinD1 (Homo sapiens, UniProt P11802); experiment: CDK4/CyclinD1 Flashplate assay, 96-well format, biotinylated-Rb peptide substrate; assay type: biochemical
Summary of the method: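 Biotinylated Rb peptide bound to streptavidin Flashplate; CDK4/CyclinD1 (70 ng/well) preincubated 30 min on ice with compound at 10, 3, 1, 0.3 and 0.1 μM final. Reaction with 1 μM cold ATP plus 33P-ATP for 45 min at RT; incorporated 33P counted, duplicates.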

CDK2/CyclinE = CDK2/CyclinE (Homo sapiens, UniProt P24941); experiment: CDK2/CyclinE Flashplate assay, 96-well format, biotinylated-Rb peptide substrate; assay type: biochemical
Experimental: This is a CDK2/CyclinE kinase assay in a 96-well Streptavidin-coated Flashplate with a biotinylated-Rb peptide substrate.
Each point is tested in duplicate
Biotinylated-Rb: Biotin-[…]-OH
• 1. Prepare substrate: 1 mg/ml solution made fresh in PBS. • 2. Add 4 μg per well to the Flashplate. • 3. Incubate for 2 hours at RT. • 4. From 10 mM inhibitor stocks in DMSO, make 1 mM, 300 μM, 100 μM, 30 μM and 10 μM series of dilution in DMSO. • 5. Was the Flashplate 3 times with 300 μl PBS to remove unbound peptide substrate. • 6. Add the CDK2/CyclinE kinase: 200 ng per well, in a volume of 90 μl in kinase buffer (except for “no enzyme” control wells). • 7. Add 1 μl per well of inhibitor to test 10 μM, 3 μM, 1 μM, 0.3 μM and 0.1 μM in final concentration per 100 μl in each well. • 8. Shake gently the Flashplate 1 minute. • 9. Incubate 30 minutes on wet ice. • 10. Initiate the reaction with 10 μl kinase buffer containing 1 μM final cold ATP and 1 μCi final ^33P-ATP per well. • 11. Shake gently the Flashplate 1 minute. • 12. Incubate 45 minutes at RT (no shaking). • 13. Wash the Flashplate 3 times with 300 μl PBS
14. Count to detect the incorporation of ^33P-ATP by the kinase to the Rb phosphorylation site.

Sequence of CDK4/CyclinD1 (P11802 whole entry, species assumed): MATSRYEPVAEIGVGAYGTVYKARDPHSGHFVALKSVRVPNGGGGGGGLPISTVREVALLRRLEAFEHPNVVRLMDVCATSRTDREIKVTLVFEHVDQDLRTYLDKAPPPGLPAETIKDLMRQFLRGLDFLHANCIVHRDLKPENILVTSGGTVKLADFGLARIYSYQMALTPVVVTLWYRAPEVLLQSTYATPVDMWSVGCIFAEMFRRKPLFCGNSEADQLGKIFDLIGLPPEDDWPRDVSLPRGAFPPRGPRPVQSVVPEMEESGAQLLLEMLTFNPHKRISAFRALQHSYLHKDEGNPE
Sequence of CDK4/CyclinD1 (P24385 whole entry partner, species assumed): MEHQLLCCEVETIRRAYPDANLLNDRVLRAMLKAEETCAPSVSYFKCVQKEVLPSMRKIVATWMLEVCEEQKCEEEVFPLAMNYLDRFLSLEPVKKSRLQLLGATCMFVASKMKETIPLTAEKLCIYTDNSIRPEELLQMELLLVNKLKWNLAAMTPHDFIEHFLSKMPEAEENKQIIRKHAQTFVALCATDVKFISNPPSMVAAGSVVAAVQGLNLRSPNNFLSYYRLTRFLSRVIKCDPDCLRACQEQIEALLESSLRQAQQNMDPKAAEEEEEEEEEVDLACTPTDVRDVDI

| Structure (SMILES) | IC50 (CDK4/CyclinD1) | IC50 (CDK2/CyclinE) |
| --- | --- | --- |
| COC(=O)Nc1nc2cc(OS(=O)(=O)c3ccc(NCc4ccccn4)cc3)ccc2[nH]1 [Example 5, Methyl-5-(4-[2-pyridylmethyl]aminophenylsulfonyloxy) benzimidazole-2-carbamate] | 1120 nM | 2200 nM |
| CCNc1ccc(S(=O)(=O)Oc2ccc3[nH]c(NC(=O)OC)nc3c2)cc1 [Example 6, Methyl-5-(4-ethylaminophenylsulfonyloxy) benzimidazole-2-carbamate] | 840 nM | 300 nM |
| COC(=O)Nc1nc2cc(OS(=O)(=O)c3ccc(NCC(=O)O)cc3)ccc2[nH]1 [Example 7, Methyl-5-(4-[N-Glycinyl]-phenylsulfonyloxy) benzimidazole-2-carbamate] | 470 nM | 2000 nM |
| COC(=O)Nc1nc2cc(OS(=O)(=O)c3ccc(NC(C)C)cc3)ccc2[nH]1 [Example 10, Methyl-5-(4-isopropylaminophenylsulfonyloxy) benzimidazole-2-carbamate] | 700 nM | 800 nM |
| CCC(CO)Nc1ccc(S(=O)(=O)Oc2ccc3[nH]c(NC(=O)OC)nc3c2)cc1 (stereo not shown) [Example 11, Methyl-5-(4-[1-ethyl, 2-hydroxyethyl]aminophenylsulfonyloxy)benzimidazole-2-carbamate] | 930 nM | 500 nM |
| COCCCNc1ccc(S(=O)(=O)Oc2ccc3[nH]c(NC(=O)OC)nc3c2)cc1 [Example 13, Methyl-5-(4-[3-methoxypropyl]aminophenyl-sulfonyloxy) benzimidazole-2-carbamate] | 400 nM | 2000 nM |
| CNc1ccc(S(=O)(=O)Oc2ccc3[nH]c(NC(=O)OC)nc3c2)cc1 [Example 14, Methyl-5-(4-methylaminophenylsulfonyloxy) benzimidazole-2-carbamate] | 300 nM | 200 nM |
| COC(=O)Nc1nc2cc(OS(=O)(=O)c3ccc(NCCS(=O)(=O)O)cc3)ccc2[nH]1 [Example 15, Methyl-5-(4-[2-sulfonylethyl]aminophenylsulfonyloxy) benzimidazole-2-carbamate] | 300 nM | 1800 nM |
| COC(=O)Nc1nc2cc(OS(=O)(=O)c3ccc(N)cc3)ccc2[nH]1 [Example 16, Methyl-5-(4-aminophenylsulfonyloxy)benzimidazole-2-carbamate] | 370 nM | 1800 nM |
| CCN(CC)CCNc1ccc(S(=O)(=O)Oc2ccc3[nH]c(NC(=O)OC)nc3c2)cc1 [Example 17, Methyl-5-(4-[2-diethylaminoethyl]aminophenyl-sulfonyloxy) benzimidazole-2-carbamate] | 6300 nM | 2000 nM |
| CC(C)(C)OC(=O)NCC(=O)Nc1nc2cc(OS(=O)(=O)c3ccc(NC4CCCC4)cc3)ccc2[nH]1 [Example 24, 4-Cyclopentylamino-benzenesulfonic acid 2-(2-tert-butoxycarbonylamino-acetylamino)-1H-benzoimidazol-5-yl ester] | 600 nM | 400 nM |

Results, then the compound that gave them:

| IC50 (CDK4/CyclinD1) | IC50 (CDK2/CyclinE) | Structure (SMILES) |
| --- | --- | --- |
| 1300 nM | 600 nM | COC(=O)Nc1nc2cc(OS(=O)(=O)c3ccc(NCC4CCCO4)cc3)ccc2[nH]1 (stereo not shown) [Example 18, Methyl-5-(4-[1-tetrathydrofurylmethyl]aminophenyl-sulfonyloxy) benzimidazole-2-carbamate] |
| 2920 nM | 700 nM | COC(=O)Nc1nc2cc(OS(=O)(=O)c3ccc(NC4CCCC4)cc3)ccc2[nH]1 [Example 19, Methyl-5-(4-cyclopentylaminophenylsulfonyloxy) benzimidazole-2-carbamate] |
| > 3000 nM | > 10000 nM | COC(=O)Nc1nc2cc(OS(=O)(=O)c3ccc(NCCc4ccccc4)cc3)ccc2[nH]1 [Example 20, Methyl-5-(4-[2-phenylethyl]aminophenylsulfonyloxy) benzimidazole-2-carbamate] |
| 3100 nM | 400 nM | COC(=O)CCC(=O)Nc1nc2cc(OS(=O)(=O)c3ccc(-n4ccnc4)cc3)ccc2[nH]1 [Example 23, N-[5-(4-Imidazol-1-yl-benzenesulfonyloxy)-1H-benzoimidazol-2-yl]-succinamic acid methyl ester] |
| 130 nM | 80 nM | COC(=O)CCC(=O)Nc1nc2cc(OS(=O)(=O)c3ccc(NC4CCCC4)cc3)ccc2[nH]1 [Example 25, N-[5-(4-Cyclopentylamino-benzenesulfonyloxy)-1H-benzoimidazol-2-yl]-succinamic acid methyl ester] |
| 680 nM | 130 nM | COC(=O)CCCC(=O)Nc1nc2cc(OS(=O)(=O)c3ccc(NC4CCCC4)cc3)ccc2[nH]1 [Example 26, 4-[5-(4-Cyclopentylamino-benzenesulfonyloxy)-1H-benzoimidazol-2-ylcarbamoyl]-butyric acid methyl ester] |
| 600 nM | 42 nM | O=C(Nc1nc2cc(OS(=O)(=O)c3ccc(NC4CCCC4)cc3)ccc2[nH]1)C1CC1 [Example 27, 4-Cyclopentylamino-benzenesulfonic acid 2-(cyclopropanecarbonyl-amino)-1H-benzoimidazol-5-yl ester] |
| 1030 nM | 600 nM | COCC(=O)Nc1nc2cc(OS(=O)(=O)c3ccc(NC4CCCC4)cc3)ccc2[nH]1 [Example 28, 4-Cyclopentylamino-benzenesulfonic acid 2-(2-methoxy-acetylamino)-1H-benzoimidazol-5-yl ester] |
| 1700 nM | 600 nM | CN(C)CC(=O)Nc1nc2cc(OS(=O)(=O)c3ccc(NC4CCCC4)cc3)ccc2[nH]1 [Example 29, 4-Cyclopentylamino-benzenesulfonic acid 2-(2-dimethylamino-acetylamino)-1H-benzoimidazol-5-yl ester] |
|  | 1000 nM | COC(=O)Nc1nc2cc(OS(=O)(=O)c3ccccc3OC(F)(F)F)ccc2[nH]1 [Example 62-g, 2-Trifluoromethoxy-benzenesulfonic acid 2-methoxycarbonylamino-1H-benzoimidazol-5-yl ester] |
|  | 1500 nM | COC(=O)Nc1nc2cc(OS(=O)(=O)c3ccsc3C(=O)OC)ccc2[nH]1 [Example 62-j, 3-(2-Methoxycarbonylamino-1H-benzoimidazol-5-yloxysulfonyl)-thiophene-2-carboxylic acid methyl ester] |
|  | 1000 nM | COC(=O)Nc1nc2cc(OS(=O)(=O)c3ccc(OCC(=O)N4CCCC4)cc3)ccc2[nH]1 [Example 65, 4-(2-oxo-2-pyrrolidin-1-yl-ethoxy)-benzenesulfonic acid 2-methoxycarbonylamino-1H-benzoimidazol-5-yl-ester] |
|  | 1000 nM | COC(=O)Nc1nc2cc(OS(=O)(=O)c3ccc(OCC(=O)NCc4ccco4)cc3)ccc2[nH]1 [Example 66-c, 4-{[(furan-2-ylmethyl)-carbamoyl]-methoxy}-benzenesulfonic acid 2-methoxycarbonylamino-1H-benzoimidazol-5-yl ester] |
|  | 5000 nM | COc1cc(Nc2nc3cc(OS(=O)(=O)c4ccc(NC5CCCC5)cc4)ccc3[nH]2)cc(C(F)(F)F)c1 [Example 70-f, 4-Cyclopentylamino-benzenesulfonic acid 2-(3-methoxy-5-trifluoromethyl-phenylamino)-1H-benzoimidazol-5-yl ester] |
|  | 1500 nM | CCOC(=O)c1cccc(Nc2nc3cc(OS(=O)(=O)c4ccc(NC5CCCC5)cc4)ccc3[nH]2)c1 [Example 70-g, 3-[5-(4-Cyclopentylamino-benzenesulfonyloxy)-1H-benzoimidazol-2-ylamino]-benzoic acid ethyl ester] |
